Assay results reported in ChEMBL document CHEMBL1151989, “Antineoplastic agents. 578. Synthesis of stilstatins 1 and 2 and their water-soluble prodrugs” (J Nat Prod, 2009).
Values after ≈ are worked out from the molar mass of the structure shown.

Key:
[1] = test system: DU-145; assay: Antitumor activity against human DU145 cells by sulforhodamine B assay; assay type: functional
[2] = (§1) Antitumor activity against human KAT4 cells by sulforhodamine B assay; assay type: functional; settings: KAT-4
[3] = test system: P388; assay: In vitro growth inhibition against mouse P388 cells
[4] = test system: NCI-H460; assay: Antitumor activity against human NCI-H460 cells by sulforhodamine B assay; assay type: functional
[5] = test system: SF-268; assay: Antitumor activity against human SF268 cells by sulforhodamine B assay; assay type: functional
[6] = test system: SW-1736; assay: Antitumor activity against human SW1736 cells by sulforhodamine B assay; assay type: functional
[7] = test system: MCF7; assay: Antitumor activity against human MCF7 cells by sulforhodamine B assay; assay type: functional
[8] = test system: KM-20L2; assay: Antitumor activity against human KM20L2 cells by sulforhodamine B assay; assay type: functional
[9] = test system: BXPC-3; assay: Antitumor activity against human BxPC3 cells by sulforhodamine B assay; assay type: functional
[10] = Aqueous solubility of compound in water; assay type: physicochemical
[11] = test system: KAT-4; assay: as §1; assay type: functional

Compound	GI50 [1]	GI50 [2]	ED50 [3]	GI50 [4]	GI50 [5]	GI50 [6]	GI50 [7]	GI50 [8]	GI50 [9]	solubility [10]	GI50 [11]
COc1cc(/C=C\c2ccc(OC)c(OP(=O)([O-])[O-])c2OP(=O)([O-])[O-])cc(OP(=O)([O-])[O-])c1OC.[Mg+2].[Mg+2].[Mg+2]	0.42 µg/mL	4.7 µg/mL	0.064 µg/mL	0.32 µg/mL	0.63 µg/mL	> 10 µg/mL	0.5 µg/mL	< 10 µg/mL	5.9 µg/mL	–	–
COc1cc(/C=C\c2ccc(OC)c(O[Si](C)(C)C(C)(C)C)c2O[Si](C)(C)C(C)(C)C)cc2c1OCO2	> 10 µg/mL	–	>10 µg/mL	> 10 µg/mL	> 10 µg/mL	–	> 10 µg/mL	> 10 µg/mL	> 10 µg/mL	–	–
COc1ccc(/C=C\c2cc(OC)c(OC)c(OC)c2)cc1O [COMBRETASTATIN A4]	0.0008 µg/mL (≈ 0.00253 µM)	–	0.0009 µg/mL (≈ 0.00284 µM)	0.0006 µg/mL (≈ 0.0019 µM)	–	–	–	0.34 µg/mL (≈ 1.07 µM)	0.39 µg/mL (≈ 1.23 µM)	–	–
COc1cc(/C=C\c2ccc(OC)c(OP(=O)([O-])[O-])c2OP(=O)([O-])[O-])cc2c1OCO2.[Li+].[Li+].[Li+].[Li+]	2.1 µg/mL	–	0.3 µg/mL	2.7 µg/mL	2.4 µg/mL	–	1.2 µg/mL	> 10 µg/mL	> 10 µg/mL	–	–
COc1ccc(/C=C\c2cc(OC)c(OC)c(OC)c2)cc1OP(=O)([O-])[O-].[Na+].[Na+] [FOSBRETABULIN DISODIUM]	0.0007 µg/mL	–	0.0029 µg/mL	0.0004 µg/mL	–	–	–	–	0.23 µg/mL	20 mg/mL	–
COc1cc(/C=C\c2ccc(OC)c(OP(=O)([O-])[O-])c2OP(=O)([O-])[O-])cc(OP(=O)([O-])[O-])c1OC.[Na+].[Na+].[Na+].[Na+].[Na+].[Na+]	0.26 µg/mL	–	0.14 µg/mL	0.3 µg/mL	0.34 µg/mL	–	0.3 µg/mL	3.1 µg/mL	1.2 µg/mL	–	–
COc1cc(/C=C\c2ccc(OC)c(OP(=O)([O-])[O-])c2OP(=O)([O-])[O-])cc2c1OCO2.[K+].[K+].[K+].[K+]	0.93 µg/mL	9.6 µg/mL	0.17 µg/mL	1.4 µg/mL	0.65 µg/mL	> 10 µg/mL	0.39 µg/mL	> 10 µg/mL	5.3 µg/mL	–	–
COc1cc(/C=C\c2ccc(OC)c(OP(=O)([O-])[O-])c2OP(=O)([O-])[O-])cc2c1OCO2.[Na+].[Na+].[Na+].[Na+]	2.5 µg/mL	–	1.4 µg/mL	2.8 µg/mL	2.8 µg/mL	–	3.4 µg/mL	> 10 µg/mL	> 10 µg/mL	–	–
COc1ccc(/C=C\c2cc(OC)c(OC)c(OC)c2)c(O)c1O [COMBRETASTATIN A-1]	0.17 µg/mL (≈ 0.512 µM)	–	0.3 µg/mL (≈ 0.903 µM)	0.74 µg/mL (≈ 2.23 µM)	–	–	–	–	4.4 µg/mL (≈ 13.2 µM)	–	–
COc1ccc(/C=C\c2cc(OC)c3c(c2)OCO3)cc1OP(=O)([O-])[O-].[Na+].[Na+]	0.053 µg/mL	–	0.025 µg/mL	0.41 µg/mL	–	–	0.045 µg/mL	3.8 µg/mL	2.1 µg/mL	–	–
COc1cc(/C=C\c2ccc(OC)c(OP(=O)([O-])[O-])c2OP(=O)([O-])[O-])cc(OP(=O)([O-])[O-])c1OC.[Zn+2].[Zn+2].[Zn+2]	4.6 µg/mL	> 10 µg/mL	0.15 µg/mL	3.5 µg/mL	4.5 µg/mL	1.3 µg/mL	3.5 µg/mL	> 10 µg/mL	> 10 µg/mL	–	–
COc1cc(/C=C\c2ccc(OC)c(OP(=O)([O-])[O-])c2OP(=O)([O-])[O-])cc(OP(=O)([O-])[O-])c1OC.[Ca+2].[Ca+2].[Ca+2]	0.37 µg/mL	–	0.14 µg/mL	0.35 µg/mL	0.46 µg/mL	–	0.38 µg/mL	5.2 µg/mL	3.6 µg/mL	–	–
Manganese Stilstatin 2 2',3,3'-O-Triphosphate	> 10 µg/mL	–	–	0.51 µg/mL	3.6 µg/mL	1.7 µg/mL	> 10 µg/mL	> 10 µg/mL	> 10 µg/mL	–	> 10 µg/mL
COc1ccc(/C=C\c2cc(OC)c3c(c2)OCO3)cc1O [Combretastatin A-2]	0.0054 µg/mL (≈ 0.018 µM)	–	0.016 µg/mL (≈ 0.0533 µM)	0.043 µg/mL (≈ 0.143 µM)	–	–	0.0042 µg/mL (≈ 0.014 µM)	0.47 µg/mL (≈ 1.57 µM)	0.014 µg/mL (≈ 0.0466 µM)	–	–
COc1cc(/C=C\c2ccc(OC)c(OP(=O)([O-])[O-])c2OP(=O)([O-])[O-])cc(OP(=O)([O-])[O-])c1OC.[K+].[K+].[K+].[K+].[K+].[K+]	0.22 µg/mL	–	0.12 µg/mL	0.3 µg/mL	0.3 µg/mL	–	0.15 µg/mL	2.9 µg/mL	0.75 µg/mL	–	–
COc1cc(/C=C\c2ccc(OC)c(OP(=O)([O-])[O-])c2OP(=O)([O-])[O-])cc(OP(=O)([O-])[O-])c1OC.[Li+].[Li+].[Li+].[Li+].[Li+].[Li+]	0.82 µg/mL	–	0.028 µg/mL	0.35 µg/mL	0.76 µg/mL	–	0.36 µg/mL	6.1 µg/mL	5.8 µg/mL	–	–
COc1cc(/C=C\c2ccc(OC)c(O[Si](C)(C)C(C)(C)C)c2O[Si](C)(C)C(C)(C)C)cc(O[Si](C)(C)C(C)(C)C)c1OC	> 10 µg/mL	–	>100 µg/mL	> 10 µg/mL	> 10 µg/mL	–	> 10 µg/mL	> 10 µg/mL	> 10 µg/mL	–	–
COc1ccc(/C=C\c2cc(O)c(OC)c(OC)c2)c(O)c1O [STILSTATIN 2]	1.8 µg/mL (≈ 5.65 µM)	–	1.7 µg/mL (≈ 5.34 µM)	1.5 µg/mL (≈ 4.71 µM)	1.6 µg/mL (≈ 5.03 µM)	–	1.6 µg/mL (≈ 5.03 µM)	1.9 µg/mL (≈ 5.97 µM)	1.8 µg/mL (≈ 5.65 µM)	–	–
COc1cc(/C=C\c2ccc(OC)c(OP(=O)([O-])[O-])c2OP(=O)([O-])[O-])cc(OC)c1OC.[Na+].[Na+].[Na+].[Na+]	2.7 µg/mL	–	0.3 µg/mL	3.3 µg/mL	–	–	–	> 10 µg/mL	> 10 µg/mL	–	–
COc1cc(/C=C\c2ccc(OC)c(OP(=O)([O-])[O-])c2OP(=O)([O-])[O-])cc(OP(=O)([O-])[O-])c1OC.[Rb+].[Rb+].[Rb+].[Rb+].[Rb+].[Rb+]	3.9 µg/mL	–	0.26 µg/mL	3.3 µg/mL	4.3 µg/mL	–	3.9 µg/mL	> 10 µg/mL	> 10 µg/mL	–	–
